Several values for one entry are separate records, joined by “and”; a condition that tells them apart may be missing. Identical values can stand only once. Where no end group is shown, it is not given here.
Legend:
DU145 prostate tumour = test: Inhibition of angiogenesis in primary tumours, intradermal DU145 tumour in nude mice; type: in vivo; settings: 5 days, vs vehicle
Excerpt: (§1) A 1 cm^2 area with the tumour at the centre was examined and the number of blood vessels bifurcations within that area supplying the tumour were counted.

[1] = test system: ET-1 induced MAPK phosphorylation in MC3T3.E1/J1 cells; test: Inhibition of ET-1 induced MAPK phosphorylation in osteoblast cell line MC3T3.E1/J1 (western blot, densitometry); type: cell-based, mouse; settings: Serum Free Media = 100.00
Method: The MC3T3. E1/J1 cell line was isolated from a parental cell line, MC3T3-E1 (available from Invitrogen), which had in turn been derived from newborn C57BL/6 mouse calvaria. The MC3T3 E1/J1 line is described as an osteoblastic line. To initiate the experiments described below, MC3T3.E1/J1 cells were plated at a density of 2.4×10^4 cells/well (24 well plates) in serum containing media and incubated for 48 hours. The cells were washed twice in PBS and re-incubated for approximately 17 hours in serum starvation media.
All media was then removed and the cells lysed and stored at −20° C. for electrophoresis/western blot, which localized phosphorylated MAPK and phosphorylated Akt probing with anti-phospho-p44/42 MAPK (Thr 202/204) and anti-Phospho AKT (Ser 473) antibodies (both commercially available from Cell Signalling Technology). The protein bands were quantitated by densitometry, and plotted as arbitrary densitometry units. Phosphorylated MAPK levels were normalised to total MAPK levels.

[2] = molecular target: T1, Human recombinant ETB receptor (Homo sapiens, UniProt P24530); test: Endothelin human receptor binding assay (125I-ET-1 competition), ETB; settings: at a concentration of 10^-4 M, n=3
T1 construct: expressed in transfected cells; host or cells: mouse erythroleukaemic (MEL) cells, membrane preparation
T1 sequence (P24530 27-442): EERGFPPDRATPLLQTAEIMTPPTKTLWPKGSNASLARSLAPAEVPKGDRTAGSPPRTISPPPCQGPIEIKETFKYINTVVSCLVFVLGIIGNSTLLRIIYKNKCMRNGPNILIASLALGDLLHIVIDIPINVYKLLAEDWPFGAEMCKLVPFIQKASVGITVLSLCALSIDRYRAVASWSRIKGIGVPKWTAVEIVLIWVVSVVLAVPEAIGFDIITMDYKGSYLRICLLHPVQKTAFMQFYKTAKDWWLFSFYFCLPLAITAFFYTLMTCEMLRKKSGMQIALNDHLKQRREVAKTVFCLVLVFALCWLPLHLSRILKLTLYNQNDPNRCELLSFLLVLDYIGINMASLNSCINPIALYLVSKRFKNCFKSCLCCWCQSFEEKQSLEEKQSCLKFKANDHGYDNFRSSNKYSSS
Excerpt: 1) Endothelin Human Receptor Binding Assay

LOVO colon tumour = test: Inhibition of angiogenesis in primary tumours, intradermal LOVO tumour in nude mice; type: in vivo; settings: 5 days, vs vehicle
Excerpt: as §1

endothelin receptors = test: Human forearm blood flow, vasoconstriction in response to infused ET-1; type: in vivo; settings: healthy male subjects, single oral doses 10 mg and 30 mg, 2-4 hours post dosing; p=0.0210; evidence of a dose response
Excerpt: Human forearm blood flow can be assessed by temporarily impeding the venous drainage from the arm by the application of a pneumatic cuff on the upper arm, which is then inflated to just above venous pressure. The resulting arterial flow into the arm with no corresponding venous drainage leads to engorgement and swelling of the forearm, which can be detected with sensitive strain gauges. Infusion of the arterial vasoconstrictor ET-1 into the brachial artery leads to a reduction in forearm distension due to decreased arterial inflow. This vasoconstriction is mediated via endothelin receptors on the vascular endothelium and associated smooth muscle.

| Compound | Inhibition of vessel count (DU145 prostate tumour; 25 mg/kg once daily p.o.) | Inhibition of vessel count (DU145 prostate tumour; 50 mg/kg once daily p.o.) | Phosphorylated MAPK, Average ([1]; ET-1 100 nm + Compound (I) 0.1 μm, normalised to total MAPK) | Phosphorylated MAPK, Average ([1]; ET-1 100 nm + Compound (I) 1 μm, normalised to total MAPK) | Phosphorylated MAPK, Average ([1]; ET-1 100 nm + Compound (I) 10 μm, normalised to total MAPK) | Phosphorylated MAPK, Average ([1]; ET-1 100 nm + Compound (I) 20 μm, normalised to total MAPK) | mean displacement at the ETB receptor [2] [%] | Inhibition of vessel count (LOVO colon tumour; 25 mg/kg once daily p.o.) | Inhibition of vessel count (LOVO colon tumour; 50 mg/kg once daily p.o., 50 mg/kg) | forearm blood flow in response to infused ET-1 compared to placebo (endothelin receptors) | Phosphorylated MAPK, Average ([1]; ET-1 100 nm alone, 3 minutes stimulation) |
| --- | --- | --- | --- | --- | --- | --- | --- | --- | --- | --- | --- |
| COc1nc(C)cnc1NS(=O)(=O)c1cccnc1-c1ccc(-c2nnco2)cc1 [Compound (I), N-(3-methoxy-5-methylpyrazin-2-yl)-2-(4-[1,3,4-oxadiazol-2-yl]phenyl)pyridine-3-sulphonamide] | 38% (P < 0.001) | 30% (P < 0.05) | 422.11 arbitrary densitometry units | 157.41 arbitrary densitometry units | 105.15 arbitrary densitometry units | 109.18 arbitrary densitometry units | 1.2±0.7 | 28% (P < 0.001) | 20% (P = 0.001) and 28% (P < 0.001) | statistically significant reduction |  |
| ET-1: endogenous 21 amino acid peptide, endothelin isoform; used as stimulus and radioligand (CSCSSLMDKECVYFCHLDIIW; ends and bridges not checked; cysteine pairing not given here; UniProt P05305 53-73, looked up) [reference compound] |  |  |  |  |  |  |  |  |  |  | 312.78 arbitrary densitometry units and 369.85 arbitrary densitometry units |

From patent publication US7820679B2, “N-(-3-methoxy-5-methylpyrazin-2-yl)-2-(4-′1,3,4-oxadiazol-2-yl-phenyl)pyridine-3 sulphonamide as an anticancer agent” (AstraZeneca AB, priority 2002, dated 2010)
